Assay [1] has as its system PC-12. Nature of the assay: Enhancement of NGF-induced neurite outgrowth in rat PC12D cells at 10 to 100 umol after 48 hrs by phase-contrast microscopy. It is filed as functional, cell-based.
Assay [2] deals with PC-12. The assay can be described thus: Effect on neurite outgrowth from rat PC12D cells at 10 to 100 umol after 48 hrs by phase-contrast microscopy. In kind it is functional, cell-based.
The subject of assay [3] is PC-12. Nature of the assay: Enhancement of 2 ng/mL NGF-induced neurite outgrowth in rat PC12D cells at 100 umol after 48 hrs by phase-contrast microscopy relative to 50 ng/mL NGF alone. It is filed as functional.

Active and inactive are the calls of the source. The rule behind the calls is not given here.

Regarding `COC(=O)CC(CO)CC[C@@]1(C)[C@H](C)C(=O)C[C@@]23COC(=O)C2=CCC[C@@H]31` (stereo not given in full), the result in the assay with PC-12 [1] was inactive.
Turning to `CO[C@H]1C[C@H](CC[C@@]2(C)[C@H](C)CC[C@@]3(C)C(C(=O)O)=CCC[C@H]23)CO1`, the outcome in the assay with PC-12 [2] was inactive. Further, the Activity with PC-12 [3] is recorded as 49%.
For `CO[C@@H]1C[C@H](CC[C@@]2(C)[C@H](C)CC[C@@]3(C)C(C(=O)O)=CCC[C@H]23)CO1`, in that order: “inactive” and 53%.

Source of the values: ChEMBL document CHEMBL1157257, “Bioactive ent-clerodane diterpenoids from the aerial parts of Baccharis gaudichaudiana” (2006).
